Key:
Test in all cases: relative viability (nuclei count vs DMSO), 5 days (fraction); higher = more cells survive
AGI-6780 + Trametinib = compound: O=C(Nc1cccc(C(F)(F)F)c1)Nc1cc(S(=O)(=O)NC2CC2)ccc1-c1ccsc1 [AGI-6780] + CC(=O)Nc1cccc(-n2c(=O)n(C3CC3)c(=O)c3c(Nc4ccc(I)cc4F)n(C)c(=O)c(C)c32)c1 [Trametinib] (partner 0.02 µM)
Method in brief: (§1)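 Lung cancer cell lines, seeded in 1536-well plates, were treated the following day by pin tool with a single drug or with five library-drug doses (not always all listed) in √10 steps on top of a fixed anchor-drug dose. Cells were fixed and nuclei stained in one step after 5 days, and nuclei were counted. Relative viability is the nuclei count for treated wells divided by that for vehicle wells, reported as medians of duplicate plates.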

AGI-6780 + Bortezomib = compound: O=C(Nc1cccc(C(F)(F)F)c1)Nc1cc(S(=O)(=O)NC2CC2)ccc1-c1ccsc1 [AGI-6780] + CC(C)C[C@H](NC(=O)[C@H](Cc1ccccc1)NC(=O)c1cnccn1)B(O)O [Bortezomib] (partner 0.002 µM)
Method in brief: as §1

AGI-6780 + Pictilisib = compound: O=C(Nc1cccc(C(F)(F)F)c1)Nc1cc(S(=O)(=O)NC2CC2)ccc1-c1ccsc1 [AGI-6780] + CS(=O)(=O)N1CCN(Cc2cc3nc(-c4cccc5[nH]ncc45)nc(N4CCOCC4)c3s2)CC1 [Pictilisib] (partner 1 µM)
Method in brief: as §1

AGI-6780 + Olaparib = compound: O=C(Nc1cccc(C(F)(F)F)c1)Nc1cc(S(=O)(=O)NC2CC2)ccc1-c1ccsc1 [AGI-6780] + O=C(c1cc(Cc2n[nH]c(=O)c3ccccc23)ccc1F)N1CCN(C(=O)C2CC2)CC1 [Olaparib] (partner 8 µM)
Method in brief: as §1

| Cell Line | relative viability (AGI-6780 + Trametinib; first compound 0.08 µM) | relative viability (AGI-6780 + Trametinib; first compound 0.253 µM) | relative viability (AGI-6780 + Trametinib; first compound 0.8 µM) | relative viability (AGI-6780 + Trametinib; first compound 2.53 µM) | relative viability (AGI-6780 + Trametinib; first compound 8 µM) | relative viability (AGI-6780 + Bortezomib; first compound 0.08 µM) | relative viability (AGI-6780 + Bortezomib; first compound 0.253 µM) | relative viability (AGI-6780 + Bortezomib; first compound 0.8 µM) | relative viability (AGI-6780 + Bortezomib; first compound 2.53 µM) | relative viability (AGI-6780 + Bortezomib; first compound 8 µM) | relative viability (AGI-6780 + Pictilisib; first compound 0.08 µM) | relative viability (AGI-6780 + Pictilisib; first compound 0.253 µM) | relative viability (AGI-6780 + Pictilisib; first compound 0.8 µM) | relative viability (AGI-6780 + Pictilisib; first compound 2.53 µM) | relative viability (AGI-6780 + Pictilisib; first compound 8 µM) | relative viability (AGI-6780 + Olaparib; first compound 0.08 µM) | relative viability (AGI-6780 + Olaparib; first compound 0.253 µM) | relative viability (AGI-6780 + Olaparib; first compound 0.8 µM) | relative viability (AGI-6780 + Olaparib; first compound 2.53 µM) | relative viability (AGI-6780 + Olaparib; first compound 8 µM) |
| --- | --- | --- | --- | --- | --- | --- | --- | --- | --- | --- | --- | --- | --- | --- | --- | --- | --- | --- | --- | --- |
| HCC-366 | 0.395 | 0.375 | 0.365 | 0.156 | 0.301 | 1.1 | 1.06 | 1.03 | 1.02 | 1.11 | 0.185 | 0.111 | 0.108 | 0.15 | 0.175 | 0.369 | 0.38 | 0.364 | 0.258 | 0.426 |
| HCC-827 | 0.457 | 0.518 | 0.518 | 0.435 | 0.476 | 0.927 | 1.1 | 0.996 | 1.12 | 1.15 | 0.896 | 0.916 | 1.03 | 0.856 | 0.823 | 0.73 | 0.659 | 0.661 | 0.53 | 0.651 |
| HOP-62 | 0.366 | 0.321 | 0.316 | 0.321 | 0.396 | 0.496 | 0.818 | 0.737 | 1.02 | 0.763 | 0.815 | 0.928 | 0.88 | 0.651 | 0.786 | 0.47 | 0.303 | 0.197 | 0.536 | 0.452 |
| IA-LM | – | – | – | – | – | 0.91 | 0.876 | 0.811 | 0.977 | 0.829 | 0.452 | 0.38 | 0.39 | 0.301 | 0.476 | 1.05 | 0.763 | 1 | 0.869 | 0.927 |
| LC-2-ad | 0.917 | 0.873 | 0.931 | 0.964 | 0.917 | 1.02 | 1.05 | 0.994 | 1.04 | 1.01 | 0.598 | 0.726 | 0.532 | 0.381 | 0.456 | 0.782 | 0.707 | 0.764 | 0.674 | 0.727 |
| LCLC-97TM1 | 0.173 | 0.21 | 0.152 | 0.159 | 0.197 | 0.867 | 0.78 | 0.871 | 0.528 | 0.68 | 0.195 | 0.218 | 0.257 | – | 0.245 | 0.41 | 0.532 | 0.394 | 0.264 | 0.378 |
| LCLC-103H | 0.678 | 0.709 | 0.643 | 0.644 | 0.696 | 1.11 | 1.17 | 1.02 | 0.939 | 1.18 | 0.582 | 0.681 | 0.516 | 0.457 | 0.663 | 0.762 | 0.755 | 0.716 | 0.688 | 0.721 |
| LK-2 | 0.864 | 0.69 | 0.813 | 0.541 | 0.868 | – | – | – | – | – | 0.413 | 0.461 | 0.601 | – | 0.505 | 0.643 | 0.778 | 0.945 | – | 0.755 |
| NCI-H358 | 0.139 | 0.174 | 0.132 | 0.112 | 0.136 | – | – | – | – | – | 0.355 | 0.38 | 0.355 | 0.289 | 0.336 | 0.692 | 0.64 | 0.834 | 0.452 | 0.636 |
| NCI-H522 | 0.667 | 0.801 | 0.75 | – | 0.645 | – | – | – | – | – | – | – | – | – | – | 0.527 | 0.636 | 0.746 | – | 0.551 |
| NCI-H1299 | – | – | – | – | – | 1.06 | 1.03 | 0.944 | 1.02 | 1.03 | 0.781 | 0.733 | 0.639 | 0.765 | 0.742 | 0.982 | 0.964 | 0.948 | 0.908 | 0.961 |
| NCI-H1395 | 0.984 | 1.01 | 1.04 | 0.975 | 1.06 | – | – | – | – | – | 0.638 | 0.626 | 0.574 | – | 0.65 | 0.474 | 0.475 | 0.474 | 0.424 | 0.439 |
| NCI-H1563 | – | – | – | – | – | 1 | 0.918 | 0.843 | 0.75 | 0.824 | 0.621 | 0.629 | 0.628 | 0.614 | 0.519 | – | – | – | – | – |
| NCI-H1648 | 0.47 | 0.53 | 0.377 | 0.409 | 0.433 | – | – | – | – | – | – | – | – | – | – | 0.89 | 0.807 | 0.783 | 0.497 | 0.415 |
| NCI-H1703 | – | – | – | – | – | 0.473 | 0.315 | 0.509 | 0.364 | 0.375 | 0.336 | 0.197 | 0.259 | 0.223 | 0.248 | 0.728 | 0.37 | 0.457 | 0.373 | 0.25 |
| NCI-H1793 | 0.393 | 0.359 | 0.479 | 0.416 | 0.423 | – | – | – | – | – | 0.272 | 0.364 | 0.351 | 0.344 | 0.303 | 0.904 | 0.845 | 0.902 | 0.695 | 0.805 |
| NCI-H1944 | 0.458 | 0.417 | 0.463 | – | 0.425 | – | – | – | – | – | 0.358 | 0.366 | 0.386 | 0.323 | 0.381 | 0.464 | 0.412 | 0.448 | – | 0.395 |
| NCI-H2170 | 1.03 | 0.881 | 0.997 | – | 0.863 | – | – | – | – | – | 0.348 | 0.358 | 0.328 | – | 0.303 | 0.589 | 0.587 | 0.67 | – | 0.59 |
| NCI-H2342 | 0.866 | 0.72 | 0.772 | 0.723 | 0.981 | – | – | – | – | – | – | – | – | – | – | 0.407 | 0.437 | 0.504 | 0.497 | 0.565 |
| SK-MES-1 | 0.549 | 0.577 | 0.509 | 0.532 | 0.493 | – | – | – | – | – | 0.365 | 0.367 | 0.338 | 0.273 | 0.344 | 0.738 | 0.667 | 0.628 | 0.643 | 0.592 |
| SW 900 | 1.01 | 0.832 | 0.915 | 0.688 | 1.18 | – | – | – | – | – | – | – | – | – | – | 0.741 | 0.826 | 0.923 | 0.878 | 0.803 |

— the supplement of paper PMC10307832
